Assay results: publication PMC9421655, “Novel Antagonist of the Type 2 Lysophosphatidic Acid Receptor (LPA2), UCM-14216, Ameliorates Spinal Cord Injury in Mice” (Journal of Medicinal Chemistry, 2022)

How the values were obtained:
[1] = In vivo levels of compound in plasma, spinal cord and brain (HPLC-MS); details: 25 mg/kg i.p.
Protocol: At 1, 2, and 4 h after drug administration (n = 3 for each time and sample), mice were sacrificed and their brains, spinal cords, and blood were obtained. The brain and spinal cord were immediately frozen and kept at −80 °C until analysis. Blood was allowed to clot at rt for 30 min and centrifuged at 4 °C for 10 min at 16 000g. Serum was transferred to a clean polypropylene tube and stored at −80 °C until analysis. For analysis, a volume of cold acetonitrile was added to the serum. The sample was incubated in an ice bath for 10 min and centrifuged at 4 °C for 10 min at 16 000g. The resulting organic layer was filtered through a PTFE filter (0.2 μm, 13 mm diameter, Fisher Scientific) and 20 μL of the sample analyzed by LC-MS/MS at the UCM’s Mass Spectrometry CAI. Separation was performed using a Phenomenex Gemini 5 μm C18 110A 150 × 2 mm column (run time 8 min; flow 0.5 mL/min; gradient: 0.5 min 10% Phase B, 2 min 60% Phase B, 4.5–6 min 100% Phase B, 7–8 min 10% Phase B; Phase A: water with formic acid 0.1%; Phase B: acetonitrile). […] The mass spectrometer ion optics were set in the multiple reaction monitoring mode and the transition selected for quantification was 432.90 > 215.10 (CE: −30 V).

LPA1 = LPA1 (Homo sapiens, UniProt Q92633); assay: cell-based; details: maximum blockade of activation induced by 10 μM LPA (18:1) at 10 μM compound; N.E. = no effect at 10 μM
Protocol: (§1) Cells stably expressing the corresponding LPA1–3 receptor were grown as described previously.[18] Changes in intracellular calcium levels were measured by using the fluorescent calcium sensitive dye Fluo-4 NW (Invitrogen). RH7777 cells or B103 cells were plated on poly-D-lysine or collagen coated, respectively, black-wall clear-bottom 96-well plates (Corning) at a density of 50 000 cells/well and cultured overnight. The culture medium was then replaced with 100 μL of Fluo-4 NW dye loading solution containing 2.5 μM of probenecid and incubated for 30 min at 37 °C followed by an additional 30 min at rt. […] Fluorescence changes were registered in a FluoStar Optima instrument (BMG Labtech) at 525 nm using an excitation wavelength of 494 nm. […] The data presented are from two to four independent experiments carried out in triplicate or quadruplicate. Dose–response curves were generated and IC50 values calculated by nonlinear regression analysis using Prism software version 5 (GraphPad Software Inc., San Diego, CA, USA).

LPA2 [2] = target: T1, LPA2 (Homo sapiens, UniProt Q9HBW0); assay: Free solution assay-compensated interferometric reader (FSA-CIR) binding, LPA2; details: receptor-containing nanovesicles, read-out: binding equilibrium constant (KD) at LPA2
T1 construct: expressed in transfected cells
Protocol: The assay was analyzed using a benchtop Compensated Interferometric Reader (CIR) that measured the light refractive index (ΔRI) change from binding-induced conformational and/or hydration changes produced by real time binding events in a sample (receptor containing nanovesicles plus compound) and compared to a nonbinding reference (RI matched buffer plus compound).[30] Finally, the interferometric signal from vector nanovesicles binding (nonspecific) to compound was subtracted from the LPA2,4–6 containing nanovesicles binding (total) to compound, to determine the specific binding interactions of the compounds to LPA2,4–6. The concentration-dependent change in RI (ΔRI) signal from the compounds to LPA2,4–6 or vector was fitted using the single site total vs nonspecific binding isotherm using GraphPad Prism. Specific KD values were determined by fitting the total minus nonspecific signal to a single site binding isotherm.
The detailed free solution assay method was described previously.[25],[26] All the compounds were dissolved in 100% DMSO, aliquoted, and frozen at −80 °C for 1 week. The compound dilution series was freshly prepared in 0.5% DMSO/PBS (pH 7.4) to keep the maximum compound in solution. […]

[3] = Metabolic stability in mouse liver microsomes; format: in vitro ADME; details: male, CD-1, mouse, liver microsomes (pooled), 1 mg/mL protein, NADPH, 37 °C, read-out: stability (t1/2, min) MLMs
Protocol: Reactions were initiated by the addition of a suspension of mouse liver microsomes (MLMs) (male CD-1 mice pooled, Sigma-Aldrich) or human liver microsomes (HLMs) (male human pooled, Sigma-Aldrich), respectively, at a final protein concentration of 1 mg/mL. […] Aliquots of 100 μL were quenched at time zero and at seven points ranging to 2 h (MLM) or 4 h (HLM) by pouring into 100 μL of ice-cold acetonitrile. […] The relative disappearance of the compound under study over the course of the incubation was monitored by HPLC-MS using SIM mode. Concentrations were quantified by measuring the area under the peak ([M + H]^+) normalized with an internal standard and converted to the percentage of compound remaining, using the time zero peak area value as 100%. The natural logarithm of the remaining percentage versus time data for each compound was fit to a linear regression, and the slope was used to calculate the degradation half-life (t1/2).

LPA2 [4] = target: T1, LPA2; assay: Ca2+ mobilization assay, agonist activity at LPA2; format: cell-based; details: 10 μM compound
Protocol: The agonist activity at LPA2 receptors was determined at 10 μM concentration for all final compounds as previously described.[18]
Figure S1. Representative snapshots showing the lack of significant agonist activity of selected compounds. (A) 1; (B) 13; (C) 54; and (D) Ki16425. (E) Graphs show the agonist activity induced […]
stably expressing LPA2 receptor were plated on collagen-coated black-wall clear-bottom 96-well plates (Corning) at a density of 50000 cells/well and cultured overnight. The culture medium was then replaced with Fluo-4 NW dye loading solution containing 2.5 µM of probenecid and incubated […]
for 30 minutes at 37 °C followed by an additional 30 minutes at rt. Fluorescence changes were registered in a FluoStar Optima instrument (BMG Labtech) at 525 nm using an excitation wavelength of 494 nm. Each well was monitored for 240 s. 20 µL of the test compound from a 6x stock solution in assay buffer were added after 120 s of starting the measurement. Ca2+ transient increase was quantified by calculating the difference between maximum and baseline values for each […]
Graphs shown are representative of two to three independent experiments.

LPA3 = target: T2, LPA3 (Homo sapiens, UniProt Q9UBY5); assay: cell-based; details: maximum blockade of activation induced by 10 μM LPA (18:1) at 10 μM compound; N.E. = no effect at 10 μM
T2 sequence (Q9UBY5 1-353): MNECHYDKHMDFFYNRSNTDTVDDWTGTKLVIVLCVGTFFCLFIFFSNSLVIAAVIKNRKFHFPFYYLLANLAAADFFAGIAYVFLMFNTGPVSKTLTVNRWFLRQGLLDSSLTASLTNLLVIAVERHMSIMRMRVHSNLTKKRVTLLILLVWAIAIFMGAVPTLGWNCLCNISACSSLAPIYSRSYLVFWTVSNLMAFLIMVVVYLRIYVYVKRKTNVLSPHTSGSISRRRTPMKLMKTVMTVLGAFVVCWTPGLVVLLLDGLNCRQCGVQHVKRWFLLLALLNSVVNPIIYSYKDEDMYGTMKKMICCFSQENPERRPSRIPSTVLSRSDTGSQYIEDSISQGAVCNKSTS
Protocol: as §1

LPA2 mutant K22A = target: T3, LPA2 mutant K22A (Homo sapiens, UniProt Q9HBW0, K19A); assay: Ca2+ mobilization in McA-RH7777 cells transfected with LPA2 point mutant K22A; format: cell-based; details: 54 at 10 μM, 10 μM LPA
T3 construct: host or cells: McA-RH7777 (CRL-1601, ATCC), transient, pcDNA3.1

LPA2 mutant Q108A = target: T4, LPA2 mutant Q108A (Homo sapiens, UniProt Q9HBW0, Q105A); assay: Ca2+ mobilization in McA-RH7777 cells transfected with LPA2 point mutant Q108A; format: cell-based; details: 54 at 10 μM, 10 μM LPA
T4 construct: host or cells: McA-RH7777 (CRL-1601, ATCC), transient, pcDNA3.1

[5] = tested on: spinal cord injury in C57Bl/6J mice; assay: Spinal cord contusion injury model, locomotor recovery (Basso Mouse Scale); format: in vivo; details: C57Bl/6 mice
Protocol: BMS is the gold standard test used for locomotor scoring after SCI in which two blinder observers score the mouse motor performance based on a nine-point scale.[28]
Adult female C57Bl/6J mice (10–12 weeks old) and LPA2 null mice were anesthetized by intramuscular injection with a mixture of ketamine and xylazine (90:10 mg/kg). A laminectomy was performed at the 11th thoracic vertebrae and the exposed spinal cord was contused using the Infinite Horizon Impactor device (Precision Scientific Instrumentation) using a force of 60 kdynes. Only mice showing a spinal cord tissue displacement ranging between 450 and 550 μm were selected.

T1 sequence (Q9HBW0 whole entry, species assumed): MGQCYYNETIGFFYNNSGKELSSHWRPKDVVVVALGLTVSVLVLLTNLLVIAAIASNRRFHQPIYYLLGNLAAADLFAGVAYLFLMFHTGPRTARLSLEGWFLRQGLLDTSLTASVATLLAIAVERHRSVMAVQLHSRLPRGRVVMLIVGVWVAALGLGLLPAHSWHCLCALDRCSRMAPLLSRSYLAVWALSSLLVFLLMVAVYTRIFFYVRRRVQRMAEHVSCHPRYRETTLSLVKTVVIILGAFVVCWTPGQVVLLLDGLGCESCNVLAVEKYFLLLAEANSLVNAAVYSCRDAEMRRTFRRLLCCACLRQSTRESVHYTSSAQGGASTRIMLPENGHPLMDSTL
LPA1, sequence (Q92633 whole entry, species assumed): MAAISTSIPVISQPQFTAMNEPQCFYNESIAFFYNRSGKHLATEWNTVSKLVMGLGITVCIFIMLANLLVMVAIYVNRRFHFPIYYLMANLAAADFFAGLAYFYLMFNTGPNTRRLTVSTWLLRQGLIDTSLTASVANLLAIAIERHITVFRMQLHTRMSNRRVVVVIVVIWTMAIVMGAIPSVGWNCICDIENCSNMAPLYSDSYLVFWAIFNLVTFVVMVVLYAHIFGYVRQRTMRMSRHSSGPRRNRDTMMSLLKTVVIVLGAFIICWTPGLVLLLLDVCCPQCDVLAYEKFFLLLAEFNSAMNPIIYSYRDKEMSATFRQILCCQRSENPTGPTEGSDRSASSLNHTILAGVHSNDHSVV
T3 sequence (Q9HBW0 whole entry K19A): as the sequence (Q9HBW0 whole entry, species assumed) above, with K19A counted along it
T4 sequence (Q9HBW0 whole entry Q105A): as the sequence (Q9HBW0 whole entry, species assumed) above, with Q105A counted along it

Compound: Cc1[nH]nc(-c2ccc(OCc3nnn[nH]3)cc2O)c1Oc1ccc(Cl)cc1Cl [Compound 54]
- time of maximum levels in spinal cord and brain [1]: one hour postadministration
- Emax (%) LPA1 (LPA1): inactive and N.E.
- Kd (LPA2 [2]): 1.3 nM
- half-life at 1 μM [3]: 50 ± 6 min
- melting point: 180 to 182 °C
- agonist activity at LPA2 receptor (LPA2 [4]): lack
- Emax (%) LPA3 (LPA3): inactive and N.E.
- agonist/antagonist activity at LPA2 K22A mutant (LPA2 mutant K22A): no significant agonist nor antagonist activity
- agonist/antagonist activity at LPA2 Q108A mutant (LPA2 mutant Q108A): no significant agonist nor antagonist activity
- BMS score ([5]; 25 mg/kg i.p. daily for 10 days from 1 h after lesion, day 50 postinjury, scale 0-9): 4.1 ± 0.3
- locomotor recovery after SCI (BMS) ([5]; 25 mg/kg i.p. daily for 10 days, significant from day 35 postinjury onward): significant improvement in locomotor recovery after SCI
